From US20250326755A1, “CYCLIC QUATERNARY AMMONIUM SALT COMPOUND, AND PREPARATION METHOD THEREFOR AND USE THEREOF” (YICHANG HUMANWELL PHARMACEUTICAL CO., LTD., priority 2022, published 2025)
Where two headings read alike, the source gives them in different places.

System: sciatic nerve of the rat
Assay type: in vivo, SD rats
Experimental: The experimental methods described in the following test examples were standard procedures unless otherwise specified. All experimental animals used in the following test examples were SD rats purchased from Hunan Slac Jingda Experimental Animal Co., Ltd. Other test materials, unless stated otherwise, were purchased from conventional biochemical reagent suppliers.
The compounds listed in Table 1 and levobupivacaine hydrochloride (positive control) were administered to three groups of rats fully acclimated to the experimental environment, with one rat per group.
Solution Preparation: 2 mg/ml Levobupivacaine Hydrochloride Injection: 2.670 ml of 7.5 mg/ml levobupivacaine hydrochloride injection (Batch No. 92S0702) was pipetted into a 10 ml volumetric flask. 0.9% NaCl solution was added until the meniscus was level with the calibration line, and the solution was inverted and mixed thoroughly, to prepare 2 mg/ml levobupivacaine hydrochloride injection. 2 mg/ml Example Compound Solution: 6.6 mg of the example compound was accurately weighed and dissolved in 3.3 ml of 0.9% NaCl solution to prepare a 2 mg/ml example compound solution.
Both the positive control and the example compound were administered to each rat at 2 mg/ml, with an administration volume of 5 ml/kg, in a single injection near the sciatic nerve of the rat. After the administration, the rat was placed on a preheated hot plate (50±0.1° C.) of an intelligent hot plate instrument. […] The maximum thermal latency was controlled at 60 s. […] Any urine or feces on the hot plate was promptly cleaned and dried before subsequent tests.
Thermal latency results were expressed as the maximum proportional effect (MPE), calculated using the following formula.
Wherein: B represented the basal thermal latency of the rats; P was the maximum thermal latency C was the observed thermal latency at the detection time point.
Measurements were considered invalid if the MPE was less than 50% of the maximum proportional effect. If two consecutive measurements yielded an MPE of less than […], the experiment was terminated.

[1] = 2 mg/ml, 5 ml/kg, single injection near the sciatic nerve of the rat, hot plate 50±0.1° C.

| Compound | the rat died, time after administration (2 mg/ml, 5 ml/kg, single injection near the sciatic nerve) | Duration/h (rat, in vivo) | Onset Time/min (rat, in vivo) | Duration/h [1] [h] | Onset Time/min [1] |
| --- | --- | --- | --- | --- | --- |
| CCCC[N+]1(CCOCCOc2ccccc2)CCCC[C@H]1C(=O)Nc1c(C)cccc1C (stereo partly drawn) [Comparative Example 1, (2S)-1-Butyl-2-((2,6-dimethylphenyl)carbamoyl)-1-(2-(2-phenoxyethoxy)ethyl)piperidine bromide, reference compound] | 1 (the rat died 4 h | 1 (the rat died 4 h | 2 min |  |  |
| CCCC[N+]1(CCCCNc2c(C)cc(C)cc2C)CCCC[C@H]1C(=O)Nc1c(C)cccc1C (stereo partly drawn) [Compound of Example 19, (2S)-1-Butyl-2-((2,6-dimethylphenyl)carbamoyl)-1-(4-(symmetricaltrimethylamino)butyl)piperidine bromide] |  |  |  | 2 to 18 | 2 min |
| CCCC[N+]1(CCCCNc2ccc(Cl)cc2)CCCC[C@H]1C(=O)Nc1c(C)cccc1C (stereo partly drawn) [Compound of Example 20, (2S)-1-Butyl-1-(4-((4-chlorophenyl)amino)butyl)-2-((2,6-dimethylphenyl)carbamoyl)piperidine bromide] |  | 24 to 48 h | 1 min |  |  |
| CCCC[N+]1(CCCCNc2ccc(F)c(F)c2)CCCC[C@H]1C(=O)Nc1c(C)cccc1C.[Br-] (stereo partly drawn) [Compound of Example 21, (2S)-1-Butyl-1-(4-((3,4-difluorophenyl)amino)butyl)-2-((2,6-dimethylphenyl)carbamoyl) piperidine bromide] |  |  |  | 19 to 24 | 1 min |
| CCCC[N+]1(CCCCOc2cc(C)ccc2C(C)C)CCCC[C@H]1C(=O)Nc1c(C)cccc1C (stereo partly drawn) [Compound of Example 23, (2S)-1-Butyl-2-((2,6-dimethylphenyl)carbamoyl)-1-(4-(2-isopropyl-5-methylphenoxy)butyl) piperidine bromide] |  |  |  | 48 to 72 | 1 min |
| CCCC[N+]1(CCCCOc2cccc(C)c2)CCCC[C@@H]1C(=O)Nc1c(C)cccc1C.[Cl-] (stereo partly drawn) [Compound of Example 29, (2R)-1-Butyl-2-((2,6-dimethylphenyl)carbamoyl)-1-(4-(m-tolyloxy)butyl)piperidine chloride] |  |  |  | 24 to 30 | 1 min |
| CCCC[N+]1(CCCOc2ccccc2)CCCC[C@H]1C(=O)Nc1c(C)cccc1C (stereo partly drawn) [Compound of Example 34, (2S)-1-Butyl-2-((2,6-dimethylphenyl)carbamoyl)-1-(3-phenoxypropyl)piperidine bromide] |  | 0 h | No effect observed |  |  |
| CCCC[N+]1(CCCOc2cccc(C)c2)CCCC[C@H]1C(=O)Nc1c(C)cccc1C (stereo partly drawn) [Compound of Example 35, (2S)-1-Butyl-2-((2,6-dimethylphenyl)carbamoyl)-1-(3-(m-tolyloxy)propyl)piperidine bromide] |  |  |  | 0 | No effect observed |
| Cc1cccc(C)c1NC(=O)[C@@H]1CCCC[N+]1(CCCCOc1ccccc1)CC(C)C (stereo partly drawn) [Compound of Example 37, (2S)-1-(Isobutylmethyl)-2-((2,6-dimethylphenyl)carbamoyl)-1-(4-phenoxybutyl)piperidine bromide] |  | 2 to 18 h | 2 min |  |  |
| CCCC[N+]1(CCCCOc2cccc(C)c2)CCCC[C@H]1C(=O)Nc1ccccc1C (stereo partly drawn) [Compound of Example 41, (2S)-1-Butyl-2-(o-tolylcarbamoyl)-1-(4-(m-tolyloxy)butyl)piperidinebromide] |  | 2 to 24 h | 2 min |  |  |
| CCCC[N+]1(CCCCOc2cccc(C)c2)CCCC[C@H]1C(=O)Nc1c(CC)cccc1CC (stereo partly drawn) [Compound of Example 42, (2S)-1-Butyl-2-((2,6-diethylphenyl)carbamoyl)-1-(4-(m-tolyloxy)butyl)piperidine bromide] |  | 2 to 24 h | 2 min |  |  |
| CCCC[N+]1(CCCCOc2ccc3cc(C(C)=O)ccc3c2)CCCC[C@H]1C(=O)Nc1c(C)cccc1C (stereo partly drawn) [Compound of Example 43, (2S)-1-(4-((6-acetylnaphth-2-yl)oxy)butyl)-1-butyl-2-((2,6-dimethylphenyl)carbamoyl) piperidine bromide] |  |  |  | 48 to 72 | 1 min |
